From US20130065847A1, “ENDOPARASITICIDAL COMPOSITIONS” (priority 2010, published 2013)

Test system: Cooperia Curticei
Experiment: In-vivo test on Cooperia curticei on sheep using peroral application
Details: Monepantel 0.625 mg/kg, Abamectin 0.05 mg/kg; for Efficacy [%]: 100×(C−T)/C of worm count means vs untreated control, days 14-17; for Efficacy [%] / log [Worm count] [geometric mean value] / Reduction worm count [factor] / Reduction log [worm count]: L4 stage, oral, combination 0.625 & 0.05 mg/kg; for Worm count [Geometric mean value]: experimentally induced infection, treated at L4 stage, single oral application, combination 0.625 & 0.05 mg/kg bodyweight, slaughter days 14-17 after treatment, untreated control 4266; for log [Worm count] [geometric mean value]: log transformed worm counts, untreated control 3.631; for Reduction worm count [factor]: observed; for Reduction worm count [factor] / Reduction log [worm count]: vs untreated control
Description: In-Vivo Test on Cooperia Curticei on Sheep Using Peroral Application
The study concerned a blinded parallel-group efficacy study against the L4 stage of the subject nematodes. The experimental induced worm burdens of monepantel/abamectin combination treated animals were compared to those of an untreated control group and sheep treated animals with either monepantel or abamectin mono-formulations.
To this end the required larvae were generated first of all through culturing of characterized field isolates. Each animal then received the same dose of L3 (infective) larvae, and their larvae burdens were allowed time to mature. Once the larvae reached the L4 stage, the sheep were allocated to treatment groups 1, 2, 3 and 4 and treated as defined in the Table below:
Oral application using the above described formulations: […]
Two weeks after treatment (days 14-17) the sheep were slaughtered, their gastro-intestinal tracts recovered and processed for enumeration of total worm burdens. The primary measure of efficacy was calculated from the mean worm reduction in groups 2-4 when compared to the untreated control group 1. Efficacies were calculated using the formula
wherein C and T are the worm count means of the Control and Treated groups, respectively.
To this end, worm counts were log transformed as follows: […]

Row | Compound | Efficacy [%] | Worm count [Geometric mean value] | log [Worm count] [geometric mean value] | Reduction worm count [factor] | Reduction log [worm count]
1 | C[C@](C#N)(COc1cc(C#N)ccc1C(F)(F)F)NC(=O)c1ccc(SC(F)(F)F)cc1 [Monepantel, N-((1S)-1-cyano-2-(5-cyano-2-trifluoro-methylphenoxy)-1-methylethyl)-4-trifluoromethylsulfanylbenzamide] | 66.0% | 1453 | 3.165 | ~2.9 factor | −0.466
2 | abamectin | 68.3% | 1352 | 3.134 | ~3.1 factor | −0.497
